According to patent US20240101551A1, “CRYSTAL FORM AND SALT FORM OF BROMINE DOMAIN PROTEIN INHIBITOR AND PREPARATION METHOD THEREFOR” (CHIA TAI TIANQING PHARMACEUTICAL GROUP CO., LTD., priority 2020, published 2024):

Legend:
[1] = Study on accelerated stability and long-term stability of the crystal form I; assay type: physicochemical; settings: long-term, 25° C. ± 2° C., 60% ± 5% RH, packaged
[2] = as above; assay type: physicochemical
Protocol: The crystal form I was placed under the accelerated condition (40±2° C., 75%±5% RH, and packaged) for 1, 2, 3 and 6 months, and under the long-term condition (25±2° C., 65%±5% RH, and packaged) for 3, 6, 9, 12, 18, 24 and 36 months to investigate its acceleration and long-term stability. The inner packaging material of the packaged sample was a double-layer low-density polyethylene bag, and the outer packaging material is a polyester/aluminum/polyethylene composite bag for medicine packaging. The samples after the storage were determined for properties, related substances (HPLC), crystal form (XRD), water content and content to investigate the stability of the product.

[3] = accelerated, 40° C. ± 2° C., 75% ± 5% RH, packaged, 1 month
[4] = accelerated, 40° C. ± 2° C., 75% ± 5% RH, packaged, 2 months
[5] = accelerated, 40° C. ± 2° C., 75% ± 5% RH, packaged, 3 months
[6] = accelerated, 40° C. ± 2° C., 75% ± 5% RH, packaged, 6 months
[7] = long-term, 25° C. ± 2° C., 60% ± 5% RH, packaged, 6 months

Impurity content ([1]; 3 months): 0.08%
Water content ([1]; 3 months): 0.03%
Water content ([1]; 6 months): 0.04%
Crystal form change [2, 3]: Unchanged
Impurity content [2, 3]: 0.08%
Water content [2, 3]: 0.03%
Crystal form change [2, 4]: Unchanged
Impurity content [2, 4]: 0.08%
Water content [2, 4]: 0.03%
Crystal form change [2, 5]: Unchanged
Impurity content [2, 5]: 0.08%
Water content [2, 5]: 0.03%
Crystal form change [2, 6]: Unchanged
Impurity content [2, 6]: 0.08%
Water content [2, 6]: 0.03%
Stability (conclusion) ([2]; influencing factors, accelerated and long-term conditions): good stability
Crystal form change ([2]; long-term, 25° C. ± 2° C., 60% ± 5% RH, packaged, 3 months): Unchanged
Crystal form change [2, 7]: Unchanged
Impurity content [2, 7]: 0.08%
Impurity content ([2]; starting crystal form I): 0.05%
Water content ([2]; starting crystal form I): 0.02%
SMILES: Cn1cc(-c2nc(N=S(C)(C)=O)ccc2Oc2ccc(F)cc2F)c2cc[nH]c2c1=O [crystal form I]
